Assays:
[1] = molecular target: T1, HassOR13/HassOrco (Helicoverpa assulta, UniProt A0A0B4ZYC6); experiment: two-electrode voltage clamp, Xenopus oocytes; format: cell-based; details: weak agonist; with HassOrco; holding potential −80 mV; pH 7.6
T1 construct: gene OR13; called heterodimer; with Odorant receptor coreceptor
T1 sequence (A0A0B4ZYC6 1-425): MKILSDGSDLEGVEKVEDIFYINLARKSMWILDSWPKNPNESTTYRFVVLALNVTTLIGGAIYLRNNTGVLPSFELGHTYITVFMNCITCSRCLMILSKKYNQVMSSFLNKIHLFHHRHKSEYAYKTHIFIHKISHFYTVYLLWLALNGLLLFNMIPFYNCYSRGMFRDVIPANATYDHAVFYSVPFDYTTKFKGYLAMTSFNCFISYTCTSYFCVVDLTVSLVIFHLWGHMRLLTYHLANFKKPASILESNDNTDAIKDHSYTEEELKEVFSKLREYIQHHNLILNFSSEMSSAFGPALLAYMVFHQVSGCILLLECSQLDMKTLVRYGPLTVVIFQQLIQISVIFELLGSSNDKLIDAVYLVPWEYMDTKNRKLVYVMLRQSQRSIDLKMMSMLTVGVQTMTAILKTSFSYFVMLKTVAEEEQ
T1 sequence (A7UGE1 1-473 partner): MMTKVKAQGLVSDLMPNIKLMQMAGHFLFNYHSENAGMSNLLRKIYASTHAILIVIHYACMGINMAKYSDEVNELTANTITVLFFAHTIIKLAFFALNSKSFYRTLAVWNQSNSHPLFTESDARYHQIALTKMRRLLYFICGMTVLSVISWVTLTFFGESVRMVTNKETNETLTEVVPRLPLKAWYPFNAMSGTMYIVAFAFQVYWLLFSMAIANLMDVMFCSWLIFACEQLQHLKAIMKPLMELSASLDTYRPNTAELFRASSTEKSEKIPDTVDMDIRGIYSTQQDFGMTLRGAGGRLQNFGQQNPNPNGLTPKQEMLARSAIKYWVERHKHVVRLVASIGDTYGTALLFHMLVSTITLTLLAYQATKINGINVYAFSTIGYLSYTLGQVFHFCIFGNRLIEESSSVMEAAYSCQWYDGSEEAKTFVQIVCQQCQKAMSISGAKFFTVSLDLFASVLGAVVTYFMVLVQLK

[2] = molecular target: T1, HassOR13/HassOrco; experiment: two-electrode voltage clamp, Xenopus oocytes; format: cell-based

SMILES | current at 10^-4 M [1] [nA] | EC50 [2] [µM]
CCCCCC/C=C\CCCCCCCC=O [Z9-16:Ald, (Z)-9-hexadecenal] | 72 ± 13 | 
CCCC/C=C\CCCCCCCC=O [Z9-14:Ald, (Z)-9-tetradecenal] | 31 ± 8 | 
CCCC/C=C\CCCCCCCCCC=O [Z11-16:Ald, (Z)-11-hexadecenal] |  | 68.4

Source: publication PMC5025650, “Comparison of research methods for functional characterization of insect olfactory receptors” (Scientific Reports, 2016)
